Values of other authors in US20200397798A1, “COMBINATION THERAPIES WITH FARNESOID X RECEPTOR (FXR) MODULATORS” (Akarna Therapeutics, Ltd., priority 2016, published 2020).
“Also recorded” adds a separate entry of the source.

How the values were obtained:
KK-A(y) mice = conditions: mouse, in vivo
[1] = system: plasma triglyceride levels; conditions: human, in vivo
[2] = system: DSS- and TNBS-induced intestinal inflammation; conditions: wild type, but not Fxr−/− mice
[3] = system: CGD-susceptible C57L mice; conditions: lithogenic diet supplemented with GW4064, 1 week
ob/ob and db/db mice = conditions: mouse, in vivo
mice = conditions: in vivo
[4] = system: patients with biopsy-proven NASH; conditions: OCA arm, 25 mg orally daily
[5] = system: C57BL/6 mice fed an MCD diet

**Q.** With `C[C@H](CCC(=O)O)[C@H]1CC[C@H]2[C@@H]3[C@H](O)C[C@@H]4C[C@H](O)CC[C@]4(C)[C@H]3C[C@H](O)[C@]12C` [CA] as the compound, how does the “hepatic TG accumulation and VLDL secretion” value (KK-A(y) mice) read?
**A.** The value was “prevented”.

**Q.** Which plasma triglyceride levels [1] does the source give for `C[C@H](CCC(=O)O)[C@H]1CC[C@H]2[C@@H]3[C@H](O)C[C@@H]4C[C@H](O)CC[C@]4(C)[C@H]3CC[C@]12C` [CDCA, chenodeoxycholic acid] here?
**A.** Its plasma triglyceride levels is “decreased circulating TG levels; also recorded: reduces plasma triglyceride levels”.

**Q.** For `CC[C@H]1[C@@H](O)[C@@H]2[C@H](CC[C@]3(C)[C@@H]([C@H](C)CCC(=O)O)CC[C@@H]23)[C@@]2(C)CC[C@@H](O)C[C@@H]12` [Compound 6-ECDCA], which “expression of proinflammatory cytokines, chemokines and their receptors” value [2] is on record?
**A.** Its value is “repressed”.

**Q.** Which CGD onset [3] does the source give for `CC(C)c1onc(-c2c(Cl)cccc2Cl)c1COc1ccc(/C=C/c2cccc(C(=O)O)c2)c(Cl)c1` [GW4064] here?
**A.** The CGD onset was “prevented CGD onset”.

**Q.** What about the liver steatosis (ob/ob and db/db mice) of the same compound?
**A.** The liver steatosis was “able to prevent liver steatosis”.

**Q.** And the “Cl− secretory responses to Ca2+ and cAMP-dependent agonists” value (T84 cells)?
**A.** The value was “attenuated”.

**Q.** And the “nuclear translocation of the receptor (FXR)” value (T84 cells)?
**A.** The value was “induced nuclear translocation”.

**Q.** What about the “ovalbumin-induced diarrhea and cholera toxin-induced intestinal fluid accumulation” value (mice) of the same compound?
**A.** Its value is “reduced”.

**Q.** With `CC[C@H]1[C@@H](O)[C@@H]2[C@H](CC[C@]3(C)[C@@H]([C@H](C)CCC(=O)O)CC[C@@H]23)[C@@]2(C)CC[C@@H](O)C[C@@H]12` [OCA, obeticholic acid] as the compound, how does the “change in HDL, total cholesterol and LDL compared to placebo” value [4] read?
**A.** Its value is “decrease in the high-density lipoprotein (HDL) and an increase in the total cholesterol and low-density lipoprotein (LDL)”.

**Q.** Which “elevations of serum ALT and AST induced by the MCD diet” value ([5]; 4 weeks treatment) does the source give for `CC(C)OC(=O)C1=CN(C(=O)c2ccc(F)c(F)c2)CC(C)(C)c2c1[nH]c1ccccc21` [WAY-362450] here?
**A.** The value was “markedly reduced”.

**Q.** And the “hepatoprotective effects in FXR−/− mice” value ([5]; FXR−/− mice fed an MCD diet)?
**A.** The value was “abolished”.
